Patent US20190322981A1, “MEANS AND METHODS FOR THE GENERATION OF OLIGODENDROCYTES” (Westfaelische Wilhelms-Universitaet Muenster, priority 2016, published 2019)

Assays:
[1] = tested on: iOL (SON-transduced human iPSC-derived NPC); assay: Compound screen: differentiation-promoting effect of drug candidates on iOL (O4 and MBP immunocytochemistry); format: cell-based; conditions: for toxic influence on iOL: at higher concentrations (tested 0.5, 1, 5 μM); for formation of MBP+ mature iOL relative to T3-treated cultures: drug candidate at 0.5, 1, 5 μM; for effect on formation of O4+ iOL compared to DMSO control: T3 60 ng/ml or drug candidate at 0.5, 1, 5 μM
Experimental: For immunocytochemical analysis, an equal volume of 4% PFA in PBS was added to the culture medium and cells were pre-fixed for 10 min at room temperature (RT). After removing the supernatant, cells were fixed for an additional 15 minutes with 4% PFA in PBS and washed three times with PBS. Fixed cells were permeabilized by adding 0.2% Triton X-100 (Sigma) in PBS for 15 min at RT (This step was omitted for NG2, O4 and GalC staining). Subsequently, blocking was performed by incubating the cells with 5% normal goat serum (NGS; Gibco) and 5% fetal calf serum (FCS; Gibco) for 30 min at RT. Primary antibodies were applied overnight at 4° C. in blocking solution. Following three washing steps with PBS, cells were incubated with Alexa Fluor conjugated secondary antibodies diluted in PBS for 1 h at RT. Cells were subsequently washed three times with PBS, including a Hoechst counterstaining for nuclei in the second washing step. Cells on glass coverslips were mounted in Dako Fluorescent Mounting Medium (Dako) and visualized on a Zeiss LSM700 confocal microscope. Cells on plastic cell culture plates were visualized on a Leica DM16000 B inverted microscope.
To assess the sensitivity of iOL towards differentiation promoting drugs, iPSC-derived NPC were transduced with concentrated SON virus particle as described above. Viral medium was removed after 24 h and replaced with GIM lacking T3. The end of the virus infection period was termed day 0. At day 5 of differentiation, cells were detached, singularized and reseeded at densities of 5×10^4 cells in matrigel-coated 48-well plates or 1.5×10^5 cells in 24-well plates containing matrigel-coated glass coverslips. Cells were allowed to recover in minimum DM consisting of DMEM-F12 with 1:200 N2 supplement, 1:100 B27 supplement lacking vitamin A, 1% penicillin/streptomycin/glutamine, 200 μM AA and 100 μM dbcAMP. After 24 h cells were treated with vehicle alone (0.01% (v/v) DMSO) as a negative control, 60 ng/ml T3 as a positive control, or with a drug candidate dissolved in DMSO at three different concentrations (0.5 μM, 1 μM, 5 μM) in minimum DM. The drug candidates comprised miconazole (Sigma), clobetasol (TCI), benztropine (Sigma), indometacin (Sigma), clemastine (Sigma) and oxybutynin (Sigma). Medium was changed every other day and cells were fixed in 4% PFA for immunocytochemical analysis after 21 days of treatment. Investigators were blinded for immunocytochemical analysis.
Identification of drugs inducing remyelination via promotion of oligodendroglial differentiation presents a promising approach for the treatment of demyelinating disorders like MS. Thus, we assessed whether iOL can be utilized to identify compounds promoting oligodendroglial differentiation. We selected six drug candidates (miconazole, clobetasol, benztropine, indometacin, clemastine and oxybutynin) which have been previously described to promote differentiation or myelination of rodent OL^1, 18-20. iOL cultures were treated with either vehicle (0.01% (v/v) DMSO) as a negative control, thyroid hormone (T3) as a positive control, or the drug candidate dissolved in DMSO at three different concentrations (0.5 μM, 1 μM, 5 μM) (FIG. 7a-d).

[2] = tested on: MAPT-OL (iOL carrying the N279K MAPT mutation); assay: Stress-induced cell death: rotenone on O4+ iOL, cleaved CASPASE 3 / O4 double-staining; format: cell-based, human; conditions: rotenone 100, 250 and 500 nM, 48 h; all results combined, control cultures set to 100%
Experimental: To examine the effect of rotenone (Sigma) on the viability of iOL derived from either N279K MAPT or Ctrl cells O4^+ iOL were purified using the MACS technology after 21 days of differentiation and replated at a density of 8×10^3 cells per well into matrigel-coated 96-well plates. After another 6 days in DM, cells were treated with either vehicle (0.01% (v/v) DMSO) or rotenone dissolved in DMSO at three different concentrations (100 nM, 250 nM, 500 nM). […] Investigators were blinded for immunocytochemical analysis.
After 28 days of differentiation, O4^+ iOL harboring the N279K mutation (MAPT-OL) were morphologically indistinguishable from their gene corrected control cell lines (MAPT-GC-OL) (FIG. 7e) and featured similar differentiation efficiencies among all cell lines included (FIG. 7f). We next set out to investigate whether the N279K MAPT mutation induces an altered expression of TAU isoforms in iOL. We purified O4^+ iOL using FACS before RNA sample preparation. […] FTDP-17 patients display widespread neurodegeneration due to increased cellular vulnerability. […]

Compound: N[C@@H](Cc1cc(I)c(Oc2ccc(O)c(I)c2)c(I)c1)C(=O)O [T3, Triiodo-L-Thyronine]
- O4+ cells ([1]; 60 ng/ml T3 (positive control), minimum DM, 21 days, DMSO control 14.01±2.89%): 28.25±3.47%

Compound: CN1[C@@H]2CC[C@H]1C[C@@H](OC(c1ccccc1)c1ccccc1)C2 [benztropine]
- toxic influence on iOL ([1]; 21 days): toxic influence
- formation of MBP+ mature iOL relative to T3-treated cultures ([1]; minimum DM, 21 days): comparable to T3-treated cultures

Compound: CN1CCC[C@@H]1CCO[C@](C)(c1ccccc1)c1ccc(Cl)cc1 [clemastine]
- effect on formation of O4+ iOL compared to DMSO control ([1]; minimum DM, 21 days): failed to promote the formation of O4^+ iOL
- toxic influence on iOL ([1]; 21 days): toxic influence

Compound: C[C@H]1C[C@H]2[C@@H]3CCC4=CC(=O)C=C[C@]4(C)[C@@]3(F)[C@@H](O)C[C@]2(C)[C@@]1(O)C(=O)CCl [clobetasol]
- formation of MBP+ mature iOL relative to T3-treated cultures ([1]; minimum DM, 21 days): comparable to T3-treated cultures

Compound: Clc1ccc(COC(Cn2ccnc2)c2ccc(Cl)cc2Cl)c(Cl)c1 (stereo not drawn) [miconazole]
- increase of MBP+ cells compared to DMSO control cultures ([1]; 1 μM, minimum DM, 21 days): almost tenfold increase
- toxic influence on iOL ([1]; 21 days): toxic influence
- toxic effect on iOL ([1]; fivefold higher concentration than the effective 1 μM): toxic effect
- differentiation-promoting effect on iOL, ranked among the tested compounds ([1]; six drug candidates compared): strongest effect on iOL

Compound: CCN(CC)CC#CCOC(=O)C(O)(c1ccccc1)C1CCCCC1 (stereo not drawn) [oxybutynin]
- effect on formation of O4+ iOL compared to DMSO control ([1]; minimum DM, 21 days): failed to promote the formation of O4^+ iOL

Compound: C=C(C)[C@H]1Cc2c(ccc3c2O[C@@H]2COc4cc(OC)c(OC)cc4[C@@H]2C3=O)O1 [rotenone]
- average increase of cell death (cleaved CASPASE-3+ iOL) in MAPT-OL [2]: 48.9±18.7%
